From the NIST ThermoML archive (doi:10.1021/acs.jced.6b00350)
Several values for one entry are separate records, joined by “and”; a condition that tells them apart may be missing. Identical values can stand only once. Numbers after ± are expanded uncertainties.

Conditions: Liquid, Hot wire method

FC(F)CC(F)(F)F [1,1,1,3,3-pentafluoropropane]
thermal conductivity (302.4 K, 9755 kPa): 0.09135 ± 0.0012 W/m/K | thermal conductivity (302.4 K, 43574 kPa): 0.104 ± 0.0013 W/m/K | thermal conductivity (302.41 K, 9754 kPa): 0.09128 ± 0.0012 W/m/K | thermal conductivity (302.43 K, 27824 kPa): 0.09846 ± 0.0013 W/m/K | thermal conductivity (302.43 K, 35521 kPa): 0.1012 ± 0.0013 W/m/K | thermal conductivity (302.43 K, 35524 kPa): 0.1013 ± 0.0013 W/m/K | thermal conductivity (302.44 K, 27822 kPa): 0.09861 ± 0.0013 W/m/K | thermal conductivity (302.47 K, 4917 kPa): 0.08905 ± 0.0011 W/m/K | thermal conductivity (302.47 K, 4920 kPa): 0.08908 ± 0.0011 W/m/K | thermal conductivity (302.49 K, 21586 kPa): 0.09609 ± 0.0012 W/m/K | thermal conductivity (302.49 K, 21587 kPa): 0.09598 ± 0.0012 W/m/K | thermal conductivity (302.51 K, 297 kPa): 0.08675 ± 0.0011 W/m/K | thermal conductivity (302.52 K, 295 kPa): 0.08688 ± 0.0011 W/m/K | thermal conductivity (302.57 K, 15359 kPa): 0.09341 ± 0.0012 W/m/K | thermal conductivity (302.57 K, 15368 kPa): 0.0935 ± 0.0012 W/m/K | thermal conductivity (302.68 K, 68021 kPa): 0.1116 ± 0.0014 W/m/K | thermal conductivity (302.68 K, 68023 kPa): 0.1115 ± 0.0014 W/m/K | thermal conductivity (302.69 K, 62436 kPa): 0.1101 ± 0.0014 W/m/K | thermal conductivity (302.7 K, 62429 kPa): 0.1097 ± 0.0014 W/m/K | thermal conductivity (302.76 K, 52483 kPa): 0.107 ± 0.0014 W/m/K | thermal conductivity (302.76 K, 52489 kPa): 0.1069 ± 0.0014 W/m/K | thermal conductivity (302.81 K, 43572 kPa): 0.104 ± 0.0013 W/m/K | thermal conductivity (302.82 K, 43572 kPa): 0.1041 ± 0.0013 W/m/K | thermal conductivity (302.85 K, 35512 kPa): 0.1012 ± 0.0013 W/m/K | thermal conductivity (302.85 K, 35521 kPa): 0.1013 ± 0.0013 W/m/K | thermal conductivity (302.87 K, 9749 kPa): 0.09105 ± 0.0012 W/m/K | thermal conductivity (302.87 K, 9754 kPa): 0.091 ± 0.0012 W/m/K | thermal conductivity (302.88 K, 27813 kPa): 0.09844 ± 0.0013 W/m/K | thermal conductivity (302.88 K, 27817 kPa): 0.09814 ± 0.0013 W/m/K | thermal conductivity (302.93 K, 4918 kPa): 0.08893 ± 0.0011 W/m/K | thermal conductivity (302.93 K, 4920 kPa): 0.0888 ± 0.0011 W/m/K | thermal conductivity (302.94 K, 21581 kPa): 0.09604 ± 0.0012 W/m/K | thermal conductivity (302.94 K, 21589 kPa): 0.09618 ± 0.0012 W/m/K | thermal conductivity (302.99 K, 297 kPa): 0.08639 ± 0.0011 W/m/K | thermal conductivity (302.99 K, 298 kPa): 0.08647 ± 0.0011 W/m/K | thermal conductivity (303.03 K, 15369 kPa): 0.09337 ± 0.0012 W/m/K | thermal conductivity (303.04 K, 15370 kPa): 0.09341 ± 0.0012 W/m/K | thermal conductivity (303.11 K, 68011 kPa): 0.1115 ± 0.0014 W/m/K | thermal conductivity (303.12 K, 68009 kPa): 0.1114 ± 0.0014 W/m/K | thermal conductivity (303.13 K, 62430 kPa): 0.11 ± 0.0014 W/m/K | thermal conductivity (303.13 K, 62436 kPa): 0.11 ± 0.0014 W/m/K | thermal conductivity (303.21 K, 52481 kPa): 0.1068 ± 0.0014 W/m/K | thermal conductivity (303.21 K, 52487 kPa): 0.1068 ± 0.0014 W/m/K | thermal conductivity (303.27 K, 43574 kPa): 0.104 ± 0.0013 W/m/K | thermal conductivity (303.27 K, 43576 kPa): 0.1041 ± 0.0013 W/m/K | thermal conductivity (303.33 K, 35513 kPa): 0.1011 ± 0.0013 W/m/K | thermal conductivity (303.33 K, 35514 kPa): 0.1012 ± 0.0013 W/m/K | thermal conductivity (303.36 K, 9753 kPa): 0.09097 ± 0.0012 W/m/K | thermal conductivity (303.36 K, 9758 kPa): 0.09104 ± 0.0012 W/m/K | thermal conductivity (303.36 K, 27804 kPa): 0.0984 ± 0.0013 W/m/K | thermal conductivity (303.37 K, 27811 kPa): 0.09842 ± 0.0013 W/m/K | thermal conductivity (303.44 K, 4916 kPa): 0.08869 ± 0.0011 W/m/K | thermal conductivity (303.44 K, 4920 kPa): 0.08879 ± 0.0011 W/m/K | thermal conductivity (303.44 K, 21579 kPa): 0.09595 ± 0.0012 W/m/K | thermal conductivity (303.44 K, 21587 kPa): 0.09607 ± 0.0012 W/m/K | thermal conductivity (303.51 K, 294 kPa): 0.08655 ± 0.0011 W/m/K | thermal conductivity (303.51 K, 297 kPa): 0.08645 ± 0.0011 W/m/K | thermal conductivity (303.54 K, 15365 kPa): 0.09343 ± 0.0012 W/m/K | thermal conductivity (303.54 K, 15366 kPa): 0.09328 ± 0.0012 W/m/K | thermal conductivity (321.62 K, 4352 kPa): 0.08273 ± 0.0011 W/m/K | thermal conductivity (321.63 K, 4356 kPa): 0.08308 ± 0.0011 W/m/K | thermal conductivity (321.64 K, 337 kPa): 0.08036 ± 0.001 W/m/K | thermal conductivity (321.65 K, 338 kPa): 0.08047 ± 0.001 W/m/K | thermal conductivity (321.65 K, 69905 kPa): 0.1085 ± 0.0014 W/m/K | thermal conductivity (321.65 K, 69906 kPa): 0.1083 ± 0.0014 W/m/K | thermal conductivity (321.68 K, 58591 kPa): 0.1047 ± 0.0013 W/m/K | thermal conductivity (321.68 K, 58592 kPa): 0.1049 ± 0.0013 W/m/K | thermal conductivity (321.69 K, 40553 kPa): 0.09923 ± 0.0013 W/m/K | thermal conductivity (321.7 K, 40558 kPa): 0.09918 ± 0.0013 W/m/K | thermal conductivity (321.7 K, 49855 kPa): 0.1015 ± 0.0013 W/m/K | thermal conductivity (321.7 K, 49873 kPa): 0.1019 ± 0.0013 W/m/K | thermal conductivity (321.71 K, 33193 kPa): 0.0964 ± 0.0012 W/m/K | thermal conductivity (321.71 K, 33197 kPa): 0.09631 ± 0.0012 W/m/K | thermal conductivity (321.73 K, 26150 kPa): 0.09344 ± 0.0012 W/m/K | thermal conductivity (321.73 K, 26151 kPa): 0.093 ± 0.0012 W/m/K | thermal conductivity (321.74 K, 19697 kPa): 0.09044 ± 0.0012 W/m/K | thermal conductivity (321.76 K, 19703 kPa): 0.09051 ± 0.0012 W/m/K | thermal conductivity (321.77 K, 13835 kPa): 0.08752 ± 0.0011 W/m/K | thermal conductivity (321.78 K, 13839 kPa): 0.08772 ± 0.0011 W/m/K | thermal conductivity (321.81 K, 8795 kPa): 0.08531 ± 0.0011 W/m/K | thermal conductivity (321.82 K, 8794 kPa): 0.08538 ± 0.0011 W/m/K | thermal conductivity (322.02 K, 69892 kPa): 0.1082 ± 0.0014 W/m/K | thermal conductivity (322.02 K, 69896 kPa): 0.1083 ± 0.0014 W/m/K | thermal conductivity (322.06 K, 58582 kPa): 0.1049 ± 0.0013 W/m/K | thermal conductivity (322.06 K, 58584 kPa): 0.105 ± 0.0013 W/m/K | thermal conductivity (322.07 K, 4350 kPa): 0.08295 ± 0.0011 W/m/K | thermal conductivity (322.07 K, 4352 kPa): 0.08313 ± 0.0011 W/m/K | thermal conductivity (322.08 K, 49847 kPa): 0.1021 ± 0.0013 W/m/K | thermal conductivity (322.09 K, 40542 kPa): 0.09897 ± 0.0013 W/m/K | thermal conductivity (322.09 K, 49848 kPa): 0.1021 ± 0.0013 W/m/K | thermal conductivity (322.1 K, 332 kPa): 0.08025 ± 0.001 W/m/K | thermal conductivity (322.1 K, 40546 kPa): 0.09896 ± 0.0013 W/m/K | thermal conductivity (322.11 K, 332 kPa): 0.08034 ± 0.001 W/m/K | thermal conductivity (322.11 K, 33198 kPa): 0.09595 ± 0.0012 W/m/K | thermal conductivity (322.12 K, 33200 kPa): 0.09642 ± 0.0012 W/m/K | thermal conductivity (322.14 K, 26147 kPa): 0.09346 ± 0.0012 W/m/K | thermal conductivity (322.15 K, 26148 kPa): 0.09328 ± 0.0012 W/m/K | thermal conductivity (322.18 K, 19689 kPa): 0.09041 ± 0.0012 W/m/K | thermal conductivity (322.18 K, 19694 kPa): 0.09034 ± 0.0012 W/m/K | thermal conductivity (322.23 K, 13831 kPa): 0.08764 ± 0.0011 W/m/K | thermal conductivity (322.23 K, 13837 kPa): 0.08773 ± 0.0011 W/m/K | thermal conductivity (322.27 K, 8791 kPa): 0.08514 ± 0.0011 W/m/K | thermal conductivity (322.27 K, 8795 kPa): 0.08522 ± 0.0011 W/m/K | thermal conductivity (322.42 K, 69875 kPa): 0.1077 ± 0.0014 W/m/K | thermal conductivity (322.42 K, 69881 kPa): 0.1077 ± 0.0014 W/m/K | thermal conductivity (322.47 K, 58570 kPa): 0.1047 ± 0.0013 W/m/K | thermal conductivity (322.48 K, 58576 kPa): 0.1046 ± 0.0013 W/m/K | thermal conductivity (322.51 K, 49828 kPa): 0.1017 ± 0.0013 W/m/K | thermal conductivity (322.51 K, 49834 kPa): 0.1019 ± 0.0013 W/m/K | thermal conductivity (322.53 K, 40525 kPa): 0.09861 ± 0.0013 W/m/K | thermal conductivity (322.53 K, 40531 kPa): 0.09882 ± 0.0013 W/m/K | thermal conductivity (322.56 K, 4352 kPa): 0.0827 ± 0.0011 W/m/K and 0.08272 ± 0.0011 W/m/K | thermal conductivity (322.56 K, 33194 kPa): 0.09577 ± 0.0012 W/m/K and 0.09565 ± 0.0012 W/m/K | thermal conductivity (322.6 K, 328 kPa): 0.08026 ± 0.001 W/m/K | thermal conductivity (322.61 K, 332 kPa): 0.08024 ± 0.001 W/m/K | thermal conductivity (322.61 K, 26147 kPa): 0.09305 ± 0.0012 W/m/K | thermal conductivity (322.61 K, 26148 kPa): 0.09299 ± 0.0012 W/m/K | thermal conductivity (322.65 K, 19690 kPa): 0.0904 ± 0.0012 W/m/K | thermal conductivity (322.66 K, 19689 kPa): 0.09023 ± 0.0012 W/m/K | thermal conductivity (322.71 K, 13830 kPa): 0.08772 ± 0.0011 W/m/K | thermal conductivity (322.72 K, 13830 kPa): 0.08785 ± 0.0011 W/m/K | thermal conductivity (322.76 K, 8791 kPa): 0.08512 ± 0.0011 W/m/K | thermal conductivity (322.77 K, 8793 kPa): 0.08496 ± 0.0011 W/m/K | thermal conductivity (322.85 K, 69859 kPa): 0.1077 ± 0.0014 W/m/K | thermal conductivity (322.86 K, 69861 kPa): 0.1078 ± 0.0014 W/m/K | thermal conductivity (322.92 K, 58557 kPa): 0.1047 ± 0.0013 W/m/K | thermal conductivity (322.92 K, 58569 kPa): 0.1047 ± 0.0013 W/m/K | thermal conductivity (322.96 K, 49820 kPa): 0.1018 ± 0.0013 W/m/K | thermal conductivity (322.97 K, 49830 kPa): 0.1018 ± 0.0013 W/m/K | thermal conductivity (323 K, 40517 kPa): 0.09874 ± 0.0013 W/m/K | thermal conductivity (323 K, 40525 kPa): 0.09862 ± 0.0013 W/m/K | thermal conductivity (323.04 K, 33192 kPa): 0.0959 ± 0.0012 W/m/K | thermal conductivity (323.05 K, 33192 kPa): 0.09594 ± 0.0012 W/m/K | thermal conductivity (323.09 K, 4348 kPa): 0.08267 ± 0.0011 W/m/K | thermal conductivity (323.1 K, 4349 kPa): 0.08248 ± 0.0011 W/m/K | thermal conductivity (323.1 K, 26147 kPa): 0.09286 ± 0.0012 W/m/K | thermal conductivity (323.11 K, 26150 kPa): 0.09307 ± 0.0012 W/m/K | thermal conductivity (323.15 K, 332 kPa): 0.0802 ± 0.001 W/m/K
